# Reference: PMC6406525, “A Biophysical Approach to the Identification of Novel ApoE Chemical Probes” (Biomolecules, 2019)
# Key:
# Type in all cases: binding
# ApoE4 [1] = target: T1, ApoE4 (Homo sapiens, UniProt P02649, C130R); assay: isothermal titration calorimetry (protein injected into compound)
# T1 construct: gene APOE; full-length mature ApoE4, codon-optimized gene in pET17b; His6-thioredoxin tag removed by HRV 3C protease; E. coli Rosetta2(DE3)
# ApoE3 = target: T2, ApoE3 (Homo sapiens, UniProt P02649); assay: as above
# T2 construct: gene APOE; His6-thioredoxin tag removed by HRV 3C protease; E. coli Rosetta2(DE3)
# T2 sequence (P02649 19-317): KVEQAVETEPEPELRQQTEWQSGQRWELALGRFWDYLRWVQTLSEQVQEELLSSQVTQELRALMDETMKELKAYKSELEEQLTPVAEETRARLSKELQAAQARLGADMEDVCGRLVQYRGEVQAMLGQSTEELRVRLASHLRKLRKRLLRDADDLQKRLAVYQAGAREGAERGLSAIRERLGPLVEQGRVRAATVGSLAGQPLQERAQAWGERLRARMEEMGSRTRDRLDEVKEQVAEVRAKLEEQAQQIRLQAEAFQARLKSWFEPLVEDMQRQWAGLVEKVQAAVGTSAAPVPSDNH
# Source text: isothermal titration calorimetry (protein injected into compound) on ApoE3
# ApoE2 = target: T3, ApoE2 (Homo sapiens, UniProt P02649, R176C); assay: as above
# T3 construct: gene APOE; His6-thioredoxin tag removed by HRV 3C protease; E. coli Rosetta2(DE3)
# T3 sequence (P02649 19-317 R176C): as the sequence (P02649 19-317) above, with R158C counted along it
# Source text: isothermal titration calorimetry (protein injected into compound) on ApoE2
# ApoE4 [2] = target: T1, ApoE4; assay: microscale thermophoresis (Red-NHS labelled ApoE4, initial fluorescence)
# Source text: microscale thermophoresis (Red-NHS labelled ApoE4, initial fluorescence) on ApoE4
# T1 sequence (P02649 19-317 C130R): as the sequence (P02649 19-317) above, with C112R counted along it
Kd (ApoE4 [1]; read-out: binding affinity),Kd (ApoE4 [1]; read-out: ApoE4),Kd (ApoE3),Kd (ApoE2),Kd (ApoE4 [2]),SMILES
3 ± 0.4 µM,,,,,Cc1ccc(C(=O)Nc2ccc(S(=O)(=O)O)c3cc(S(=O)(=O)O)cc(S(=O)(=O)O)c23)cc1NC(=O)c1cccc(NC(=O)Nc2cccc(C(=O)Nc3cc(C(=O)Nc4ccc(S(=O)(=O)O)c5cc(S(=O)(=O)O)cc(S(=O)(=O)O)c45)ccc3C)c2)c1 [Suramin]
,38 ± 4 µM,119 ± 50 µM,55 ± 14 µM,,O=C(O)c1cc2ccccc2c(Cc2c(O)c(C(=O)O)cc3ccccc23)c1O [Pamoic acid]
,8 ± 2 µM,8 ± 1 µM,6 ± 2 µM,,O=C(O)c1ccc2nc(-c3cc(Cl)cc(Cl)c3)oc2c1 [Tafamidis]
,15 ± 10 µM,24 ± 9 µM,67 ± 36 µM,,CCN(CC)CCOc1ccc(C(=C(Cl)c2ccccc2)c2ccccc2)cc1 [Clomifene]
,18 ± 12 µM,20 ± 3 µM,33 ± 10 µM,,N[C@@H](Cc1cc(I)c(Oc2cc(I)c(O)c(I)c2)c(I)c1)C(=O)O [L-Thyroxine]
,,,,44 ± 6 µM,CN(C)CCOc1ccc(/C(=C(/CCCl)c2ccccc2)c2ccccc2)cc1 [Toremifene]
,,,,67 ± 19 µM,CC/C(=C(\c1ccccc1)c1ccc(OCCN(C)C)cc1)c1ccccc1 [Tamoxifen]
,45 ± 13 µM,47 ± 9 µM,47 ± 32 µM,,Cc1ccc(Cl)c(Nc2ccccc2C(=O)O)c1Cl [Meclofenamic acid]
